Assay results published in patent US20150105252A1, “SUBSTITUTED PYRAZOLES AS HERBICIDES” (E I DU PONT DE NEMOURS AND COMPANY, priority 2013, published 2015).

How the values were obtained:
crabgrass, large = assay: Test A preemergence; format: in vivo, Digitaria sanguinalis; settings: preemergence
Summary of the method: (§1)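 Growth medium: loam soil blended with sand. Preemergence treatment used a directed soil spray right after planting; postemergence treatment targeted seedlings at one to two leaves (2–10 cm height). Response was judged by eye relative to untreated plants about 10 days later on a 0–100 control scale.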

wheat [1] = assay: Test A postemergence; format: in vivo, Triticum aestivum; settings: Postemergence
Summary of the method: as §1

velvetleaf [2] = assay: Test C preemergence; format: in vivo, Abutilon theophrasti; settings: preemergence
Summary of the method: (§2)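 Scores of 0 (no effect) to 100 (complete control) were assigned by eye after 13–15 days, comparing treated pots with controls. Soil-applied (preemergence) treatments went onto seeds in loam and sand; foliar (postemergence) treatments onto 1- to 4-leaf plants in peat medium.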

blackgrass = assay: Test C postemergence; format: in vivo, Alopecurus myosuroides
Summary of the method: as §2

velvetleaf [3] = assay: Test C postemergence; format: in vivo, Abutilon theophrasti; settings: postemergence
Summary of the method: as §2

nutsedge, yellow = assay: Test C preemergence; format: in vivo, Cyperus esculentus; settings: preemergence
Summary of the method: as §2

lambsquarters = assay: Test C preemergence; format: in vivo, Chenopodium album; settings: preemergence
Summary of the method: as §2

soybean = assay: Test C postemergence; format: in vivo, Glycine max; settings: postemergence
Summary of the method: as §2

kochia = assay: Test C postemergence; format: in vivo, Kochia scoparia
Summary of the method: as §2

waterhemp = assay: Test C preemergence; format: in vivo, Amaranthus rudis; settings: preemergence
Summary of the method: as §2

wheat [4] = assay: Test A preemergence; format: in vivo, Triticum aestivum; settings: preemergence, 125 g ai/ha, visual injury approx. 10 days after treatment
Summary of the method: as §1

corn = assay: Test C preemergence; format: in vivo, Zea mays; settings: preemergence
Summary of the method: as §2

oilseed rape = assay: Test C postemergence; format: in vivo, Brassica napus; settings: postemergence
Summary of the method: as §2

barnyardgrass = assay: Test C postemergence; format: in vivo, Echinochloa crus-galli
Summary of the method: as §2

[5] = 31 g ai/ha, visual rating, scale 0 to 100 (0 no effect, 100 complete control), 13 to 15 days
[6] = 62 g ai/ha, scale 0 to 100 (0 no effect, 100 complete control), 13 to 15 days
[7] = 125 g ai/ha, 13 to 15 days, scale 0 to 100, 0 = no effect, 100 = complete control
[8] = 250 g ai/ha, scale 0 to 100, 0 is no effect, 100 is complete control
[9] = Postemergence, 31 g ai/ha, visually evaluated after 13 to 15 days
[10] = postemergence, 62 g ai/ha, scale 0 to 100
[11] = postemergence, 250 g ai/ha, scale 0 to 100 (0 no effect, 100 complete control)
[12] = postemergence, 125 g ai/ha, scale 0 to 100, 0 no effect, 100 complete control
[13] = 250 g ai/ha, scale 0 to 100 (0 no effect, 100 complete control)
[14] = 125 g ai/ha, scale 0 to 100, 0 no effect, 100 complete control

CCc1cc(C(=O)NCC(F)(F)F)nn1Cc1ccnc(SC(F)(F)F)c1 [Compound 214]
Crabgrass, Large plant response rating (0 to 100 scale) (crabgrass, large; 125 g ai/ha, visual injury approx. 10 days after treatment): 100
Crabgrass, Large plant response rating (crabgrass, large; 500 g ai/ha, visual injury after approx. 10 days, 0 to 100 scale (0 no effect, 100 complete control)): 100
Wheat plant response rating (wheat [1]; 125 g ai/ha, 0 to 100 scale, 0 no effect, 100 complete control): 80
Wheat plant response rating (wheat [1]; 500 g ai/ha, 0 to 100 scale (0 no effect, 100 complete control)): 90
Velvetleaf plant response rating (velvetleaf [2]; [5]): 35
Velvetleaf plant response rating (velvetleaf [2]; [6]): 100
Plant response rating, Velvetleaf (velvetleaf [2]; [7]): 100
Velvetleaf plant response rating (velvetleaf [2]; [8]): 100
Plant response rating (scale of 0 to 100 where 0 is no effect and 100 is complete control), Blackgrass (blackgrass; [9]): 5
Blackgrass plant response rating (blackgrass; [10]): 5
Plant response rating, Blackgrass (blackgrass; [11]): 50
Plant response rating, Blackgrass (blackgrass; [12]): 10
Plant response rating, Velvetleaf (velvetleaf [3]; [13]): 75
Velvetleaf plant response rating (velvetleaf [3]; scale 0 to 100): 20
Nutsedge, Yellow plant response rating (nutsedge, yellow; [5]): 25
Nutsedge, Yellow plant response rating (nutsedge, yellow; [6]): 55
Plant response rating, Nutsedge, Yellow (nutsedge, yellow; [7]): 65
Nutsedge, Yellow plant response rating (nutsedge, yellow; [8]): 65
Lambsquarters plant response rating (lambsquarters; [5]): 100
Lambsquarters plant response rating (lambsquarters; [6]): 100
Plant response rating, Lambsquarters (lambsquarters; [7]): 100
Lambsquarters plant response rating (lambsquarters; [8]): 100
Plant response rating, Soybean (soybean; [13]): 95
Soybean plant response rating (soybean; [14]): 90
Plant response rating (scale of 0 to 100 where 0 is no effect and 100 is complete control), Kochia (kochia; [9]): 85
Kochia plant response rating (kochia; [10]): 90
Plant response rating, Kochia (kochia; [11]): 90
Plant response rating, Kochia (kochia; [12]): 90
Waterhemp plant response rating (waterhemp; [5]): 100
Waterhemp plant response rating (waterhemp; [6]): 100
Plant response rating, Waterhemp (waterhemp; [7]): 100
Waterhemp plant response rating (waterhemp; [8]): 100
Wheat plant response rating (0 to 100 scale) (wheat [4]): 80
Corn plant response rating (corn; [5]): 0
Corn plant response rating (corn; [6]): 0
Plant response rating, Corn (corn; [7]): 35
Corn plant response rating (corn; [8]): 40
Oilseed Rape plant response rating (oilseed rape; 62 g ai/ha, scale 0 to 100): 60
Plant response rating, Oilseed Rape (oilseed rape; [13]): 70
Plant response rating, Oilseed Rape (oilseed rape; [14]): 60
Plant response rating (scale of 0 to 100 where 0 is no effect and 100 is complete control), Barnyardgrass (barnyardgrass; [9]): 5
Barnyardgrass plant response rating (barnyardgrass; [10]): 5
Plant response rating, Barnyardgrass (barnyardgrass; [11]): 65
Plant response rating, Barnyardgrass (barnyardgrass; [12]): 30
